PubChem BioAssay (NCI)
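The compound was tested at five concentrations on cells cultured in 96-well plates, with a 48-hour exposure period. Definition used: TGI = concentration required for complete inhibition of growth.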

Experiments:
Assay in all cases: growth of human tumour cells (NCI), 48 h
MCF7 breast = tested on: MCF7 breast
NCI/ADR-RES ovarian = tested on: NCI/ADR-RES ovarian
SF-268 CNS = tested on: SF-268 CNS
NCI-H23 lung = tested on: NCI-H23 lung
HT29 colon = tested on: HT29 colon
ACHN renal = tested on: ACHN renal
EKVX NSCLC = tested on: EKVX NSCLC
LOX IMVI melanoma = tested on: LOX IMVI melanoma
HCT-15 colon = tested on: HCT-15 colon
A498 renal = tested on: A498 renal
MDA-MB-231 breast = tested on: MDA-MB-231 breast
HCC-2998 colon = tested on: HCC-2998 colon
SN12C renal = tested on: SN12C renal
HS 578T breast = tested on: HS 578T breast
RPMI-8226 leukemia = tested on: RPMI-8226 leukemia
PC-3 prostate = tested on: PC-3 prostate
HOP-92 NSCLC = tested on: HOP-92 NSCLC
OVCAR-5 ovarian = tested on: OVCAR-5 ovarian
BT-549 breast = tested on: BT-549 breast

| Structure (SMILES) | TGI (MCF7 breast) [µM] | TGI (NCI/ADR-RES ovarian) [µM] | TGI (SF-268 CNS) [µM] | TGI (NCI-H23 lung) [µM] | TGI (HT29 colon) [µM] | TGI (ACHN renal) [µM] | TGI (EKVX NSCLC) [µM] | TGI (LOX IMVI melanoma) [µM] | TGI (HCT-15 colon) [µM] | TGI (A498 renal) [µM] | TGI (MDA-MB-231 breast) [µM] | TGI (HCC-2998 colon) [µM] | TGI (SN12C renal) [µM] | TGI (HS 578T breast) [µM] | TGI (RPMI-8226 leukemia) [µM] | TGI (PC-3 prostate) [µM] | TGI (HOP-92 NSCLC) [µM] | TGI (OVCAR-5 ovarian) [µM] | TGI (BT-549 breast) [µM] |
| --- | --- | --- | --- | --- | --- | --- | --- | --- | --- | --- | --- | --- | --- | --- | --- | --- | --- | --- | --- |
| OC(CC(O)(C(F)(F)F)C(F)(F)F)C(O)c1ccco1 (configuration not stated) | > 10 | > 10 | > 10 | > 10 | > 10 | > 10 | > 10 | > 10 | > 10 | > 10 | > 10 | > 10 | > 10 | > 10 | > 10 | > 10 |  |  |  |
| COc1ccc(C(c2ccc3c(c2)OCO3)N2C(=O)CCC2C(=O)O)cc1 (configuration not stated) | > 100 | > 100 | > 100 | > 100 | > 100 | > 100 | > 100 | > 100 | > 100 | > 100 | > 100 | > 100 | > 100 |  | > 100 | > 100 | > 100 | > 100 | > 100 |
| CC/C(SC)=[N+](\C)[O-] |  |  | > 100 | > 100 | > 100 | > 100 | > 100 | > 55.8 | > 100 | > 100 |  | > 100 | > 100 |  | > 100 |  | > 100 | > 100 |  |
| CN1N=C2c3ccccc3CC[C@H]2C1c1cccc(O)c1 (some centres not stated) |  |  | > 100 | > 100 | > 100 | > 100 | > 100 | > 100 | > 100 | > 100 |  | > 100 | > 100 |  | > 100 |  | > 100 | > 100 |  |
| COC(=O)N/N=C(/Cc1occc(=O)c1O)C(=O)Nc1ccc([N+](=O)[O-])cc1[N+](=O)[O-] |  |  | > 100 | > 100 | > 100 | > 100 | > 100 | > 100 | > 100 | > 100 |  | > 100 | > 100 |  | > 100 |  | > 100 | > 100 |  |
| CCO/C=C(\C(=O)OC)S(=O)(=O)c1ccc(C)cc1 | > 100 | > 100 | > 100 | > 100 | > 100 | > 100 | > 100 | > 100 | > 100 |  | > 100 | > 100 | > 100 | > 100 | > 100 | > 100 | > 100 | > 100 |  |
| CC(C)C1COC(c2ccc3ccccc3c2-c2c(O[Si](C)(C)C(C)(C)C)ccc3ccccc23)=N1 (configuration not stated) |  |  | 34.7 | 30.7 | 29 | 33.2 | 35.3 | 45.5 | 46.7 | 36.2 |  | 28.9 | 33.2 |  | 33.2 |  | 26.6 | 32.6 |  |
| COC1=CC(=O)C2C(C1=O)C(c1ccc(OC)c(OC)c1)[C@H]2C (some centres not stated) |  |  | > 100 | 42.9 | > 100 | 33.4 | > 100 | 40.4 | 34.5 | > 100 |  | > 100 |  |  | 38.4 |  | 36.6 | > 100 |  |
| CCN(CC)CCCNc1ncc(C)c2c1c1ccc3c(O)cccc3c1n2C | 2.06 | > 100 | 36.6 | 4.82 | 5.04 | 12.8 | 6.87 | 2.64 |  | 32 | 3.42 | 4.31 | 14.3 |  | > 23.9 | 2.16 | 26.6 | 11.8 | 4.05 |
| Cc1ccc(C2SCC(=O)N2NC(=O)c2ccncc2)s1 (configuration not stated) | > 100 | > 100 | > 100 | > 100 | > 100 | > 100 | > 100 | > 100 | > 100 | > 100 | > 100 | > 100 | > 100 |  | > 100 | > 100 | > 100 | > 100 | > 100 |
| CC[C@H]1C=CCC[C@@]2(C[C@@H]3CC[C@H]4[C@H](C(=O)OCCCCCCCCCCCCCCCC(=O)N(CCCN)C[C@@H](O)CCN)[C@]5(CCC[C@@H](C)O5)NC(=[N+]34)N2)O1 | 1.51 | 4.81 | 3.46 | 3.21 | 1.48 | 1.84 | 2.66 | 1.38 | 2.18 | 3.09 |  | 1.82 | 2.19 | 4.26 | 0.833 | 2.06 | 1.45 | 1.78 | 4.27 |
| O=C(Nc1ccc(Cl)cc1)NS(=O)(=O)c1c(-c2ccccc2)oc2ccccc2c1=O |  | > 100 | > 100 | > 100 | > 100 | > 100 | > 100 | > 100 | > 100 | > 100 |  | > 100 | > 100 | > 100 | > 100 | > 100 | > 100 | > 100 |  |
| CN(C)c1nc(=NCc2cccnc2)ss1 |  |  | > 10 | > 10 | > 10 |  | > 10 | > 10 | > 10 |  | > 10 |  | > 10 |  | > 10 | > 10 | > 10 |  |  |
| O=C(/C=C/c1ccc2c(c1)OCO2)CC(=O)/C=C/c1ccc2c(c1)OCO2 | > 100 | > 100 |  | > 100 | > 100 | > 100 | > 100 | > 100 | > 100 |  | > 100 | > 100 | > 100 | > 100 | > 100 | > 100 |  | > 100 |  |
| CCN(CC)CCCCC1CCN(CC(=O)N2c3cc(Cl)ccc3NC(=O)CC2C)CC1 (configuration not stated) |  |  | > 100 | > 100 | > 100 | > 100 |  | > 100 | > 100 | > 100 |  | > 100 | > 100 |  | > 100 |  | > 100 | > 100 |  |
